Reference: US9439984B2, “Macrocycles” (priority 2012, dated 2016)

Legend:
[1] = Th(IV) spectrophotometric EDTA competition titration (solution thermodynamics); conditions: for pM value (negative logarithm of the free metal concentration): Th(IV); for log β110 (cumulative stability constant) with Th(IV): 25° C., 0.1 M KCl, 5% DMSO, βmlh for mM+lL+hH ⇄ MmLlHh
Procedure: All spectrophotometric titrations were carried out with constant stirring and a blanket of argon flow in a jacketed cell connected to a recirculating water bath to maintain the temperature at 25° C. All solutions contained 0.1 M KCl with 5% DMSO (v/v), for consistency with titrations where DMSO was used to ensure solubility. The ligand was added as a 50 mM DMSO stock solution, and Th(IV) as a standardized 10 mM stock solution in nitric acid (79 mM). The HCl and KOH solutions were prepared by dilution of Dilut-It (J. T. Baker) concentrated solutions with degassed Millipore water containing 5% DMSO, to maintain the DMSO concentration constant throughout the titration. The 0.1 M HCl solution was standardized by titration of Tris using bromocresol green as an indicator, and the 0.1 M KOH solution was standardized by titration of KHP using phenolphthalein as an indicator. The glass electrode (Nova Analytics Pinnacle) used for the pH measurements was calibrated by adding 2.000 mL 0.1 M HCl (5% DMSO) to 50.0 mL 0.1 M KCl (5% DMSO), and titrating the solution to pH 11.6 with 0.1 M KOH (5% DMSO). The titration was analyzed using the program GLEE to refine for 8 and the slope. For low pH titrations, a strong acid calibration was performed by titrating 50.0 mL 0.1 M KCl with 5% (v/v) DMSO with 0.1 M HCl to pH 1.8. The data were analyzed in an Excel spreadsheet using the SOLVER function to refine for Σ° and the slope. Metrohm Brinkmann 665 Dosimat instruments were the automated burettes used to dispense the titrant, the pH meter was a Fisher Accumet AR 15, and the UV-Vis spectrometer a Hewlett-Packard 8452A. The computer program Labview was the interface from which all these components were orchestrated to run the titrations. A value of −14.20 was used as the pKw to account for the DMSO content.
50 mL solutions (5% DMSO) of 50 μM ligand and 20 equivalents (1 mM) each of MES, HEPES, and CHES, were titrated forward and backward between pH 1.9 and 12.7 with standardized 0.1 M KOH and 0.1 M HCl. The data points were collected at constant increments of 0.05 pH units at pH 1.9-11.5, with an equilibration time of 90-500 sec following titrant additions and a 10 min. delay between successive pH readings. Titration data above pH 11.5 was collected at constant increments of 0.10 pH units, to minimize the time at which the electrode is exposed to strongly basic conditions. All absorbance measurements used in the refinement were no more than 1.0 absorbance units. Spectra from 300-450 nm were analyzed (simultaneously) in the program pHAb. Titrations for constants reported with a standard deviation were performed in triplicate (the standard deviation is between individually refined values for each titration).
50 mL solutions of 50 μM ligand, 50 μM Th(IV), and 500 μM EDTA (Sigma Aldrich) or DTPA (Pharm-Eco) were titrated forward and backward with standardized 0.1 M KOH and 0.1 M HCl. The data points were collected at constant increments of 0.05 pH units, with an equilibration time of 90-500 sec following titrant additions and a 20-30 min delay between successive pH readings. All absorbance measurements used in the refinement were no more than 1.1 absorbance units. Spectra from 300-450 nm were analyzed (simultaneously) in the program pHAb. The following values for the log β for the formation of Th hydroxides were included in the refinement: [ThOH]^3+, −2.5; [Th(OH)2]^2+, −6.2; Th(OH)4, −17.4; [Th2(OH)2]^6+, −5.9; [Th2(OH)3]^5+, −6.8; [Th4(OH)8]^8+, −20.4; [Th4(OH)12]^4+, −26.6; [Th4(OH)14]^2+, −36.8; [Th4(OH)15]^+, −36.8. The following stability constants for Th with EDTA (DTPA) were also included: log β011, 10.17 (10.45); log β012, 16.28 (18.98); log β013, 18.96 (23.26); log β014, 22.46 (25.91); log β015, 22.46 (27.73); log β110, 23.2 (28.78); log β111, 25.18 (30.94). Spectra of the free ligand, refined from the ligand titrations, were set constant in the refinement as well.

[2] = cited from earlier work; for Log K1 with thorium(IV): ligands of increasing denticity; for log β110 with Th: literature constant used for comparison and in the refinement; for log β111 with Th: protonated 1:1 Th complex, constant included in the refinement
[3] = cited from earlier work; for log β011: m=0, l=1, h=1 (ligand protonation), printed among stability constants for Th; for log β012: m=0, l=1, h=2 (ligand protonation); for log β013: m=0, l=1, h=3 (ligand protonation); for log β014: m=0, l=1, h=4 (ligand protonation); for log β015: m=0, l=1, h=5 (ligand protonation)
[4] = UV-Vis dye (arsenazo III) displacement kinetic experiments; type: binding; conditions: 100 mM HEPES pH 7.4, 100 mM KCl, 25° C., qualitative
Procedure: Spectra were acquired on an Hewlett-Packard 8453 spectrometer at 25° C. The temperature was controlled by a recirculating water bath connected to a jacketed cell holder. Samples were measured in small volume (50 μL) quartz cuvettes with 1 cm path lengths. Solutions were buffered with 100 mM HEPES at pH 7.4 (at 25° C.) and 100 mM KCl. Complexation of the thorium and dye was performed by combining aqueous stock solutions of standardized Th^4+ in nitric acid (77.9 mM HNO3, pH 1.4, 1 mM) and purified dye (1 mM). The solution was let sit on the bench at room temperature for 30 min, diluted in buffer, and let sit at room temperature for an hour. The absorbance was monitored starting from the addition of ligand, as a solution of DMSO ligand stock solution (5 mM) and buffer (equilibrated for 15 min. beforehand). The A vs. t plots were fit with a first-order decay equation in Origin at wavelengths corresponding to the appearance of free dye (550, 560 nm) and the disappearance of thorium-dye complex (614, 669, 700 nm). The reaction with DOTA was refluxed (and stirred with a magnetic stir bar) and performed on a 3 mL scale (instead of 100 μL) in a 10 mL round-bottom flask, placed in an oil bath, and fitted with a reflux condenser. Aliquots were taken periodically and transferred to a cuvette for UV-Vis spectra acquisition. […]

[5] = Stopped-flow UV-Vis kinetics of direct association with Th(IV); type: binding; conditions: 5 μM Th, 10-25 equivalents of ligand, 100 mM HEPES (pH 7.4), 5% DMSO; average of four experiments
Procedure: The stopped-flow kinetic experiments were performed using a stopped-flow apparatus equipped with an OLis rapid-scanning monochromator 1000 and a 75 W Xe lamp. Upon electronic activation, the apparatus (powered with a gas source, in this case, Ar) mixes 100 μL of each solution in the two syringes into a mixing chamber. This mixture is flowed into a separate chamber, where the flow is stopped and UV spectra are taken. One syringe contained 10 μM Th(IV) in 77.9 mM HNO3 (pH 1.4), while the other held a solution of 50-300 μM ligand, in 200 mM HEPES (pH 8.3) and 10% DMSO. The 1:1 mixture of these solutions was 5 μM Th, 25-150 μM ligand, 100 mM HEPES (pH 7.4). […] The data were analyzed using the program SpecFit to simultaneously use the absorbance at all of the wavelengths to obtain a second-order rate constant.
The kinetics of the direct association of L with Th(IV) have been elusive thus far due to the presence of various species in solution (as the metal ion can hydrolyze to form various species such as Th(OH)^3+, Th(OH)2^2+, Th4(OH)12^4+, and Th(OH)4, and L has many protonation states) and the small spectral change upon complexation. […] However, UV-Vis kinetics experiments using a stopped-flow apparatus and more intense light source enabled a direct and quantitative assessment of the complexation. […]

[6] = 1 μM metal, 10 μM ligand, pH 7.4

CNC(=O)c1ccc(C(=O)NCCCN(CCCCN(CCCNC(=O)c2ccc(C(=O)NC)c(O)c2O)C(=O)c2ccc(C(=O)NC)c(O)c2O)C(=O)c2ccc(C(=O)NC)c(O)c2O)c(O)c1O [3,4,3-LiMeTAM]
pM value (negative logarithm of the free metal concentration) [1, 6]: 39.2
log β110 (cumulative stability constant) with Th(IV) [1]: 56.1

CC(=O)CC(C)=O [Acac]
Log K1 with thorium(IV) [2]: 7.85

O=C(O)CN(CCN(CC(=O)O)CC(=O)O)CCN(CC(=O)O)CC(=O)O [DTPA]
Log K1 with thorium(IV) [2]: 30.34
log β110 with Th [2]: 28.78
log β111 with Th [2]: 30.94
log β011 [3]: 10.45
log β012 [3]: 18.98
log β013 [3]: 23.26
log β014 [3]: 25.91
log β015 [3]: 27.73

O=C(O)CN(CCN(CC(=O)O)CC(=O)O)CC(=O)O [EDTA]
Log K1 with thorium(IV) [2]: 25.3
log β110 with Th [2]: 23.2
log β111 with Th [2]: 25.18
log β011 [3]: 10.17
log β012 [3]: 16.28
log β013 [3]: 18.96
log β014 [3]: 22.46
log β015 [3]: 22.46

O=C(O)CN(CCO)CCN(CC(=O)O)CC(=O)O [HEDTA]
Log K1 with thorium(IV) [2]: 18.5

O=C(O)CN(CC(=O)O)CC(=O)O [NTA]
Log K1 with thorium(IV) [2]: 16.9

O=C(O)CN(CCN(CCN(CC(=O)O)CC(=O)O)CC(=O)O)CCN(CC(=O)O)CC(=O)O [TTHA]
Log K1 with thorium(IV) [2]: 31.9

COCCNC(=O)c1ccc(C(=O)NCCN2CCNC(=O)c3ccc(c(O)c3O)C(=O)NCCN(CCNC(=O)c3ccc(C(=O)NCCOC)c(O)c3O)CCNC(=O)c3ccc(c(O)c3O)C(=O)NCC2)c(O)c1O [phi(2,2)moeTAM, Tren2TAM2[TAM(OMeEtN)]2]
rate of Th(IV) complexation greater than those of DOTA and DTPA [4]: 1-2 orders of magnitudes
second-order rate constant of complexation of Th(IV) [5]: 1.6(3)×10^4 M^−1 s^−1
pM value (negative logarithm of the free metal concentration) [1, 6]: 40.2
pM greater than the pM value for DTPA ([1]; 1 μM metal, 10 μM ligand, pH 7.4, relative to DTPA): 14 orders of magnitude
pM greater than the pM value for ethyl-TAM ([1]; 1 μM metal, 10 μM ligand, pH 7.4, relative to ethyl-TAM): 21 orders of magnitude
log β110 (cumulative stability constant) with Th(IV) [1]: 53.7(5)
log β110 greater than that of DTPA ([1]; relative to DTPA (28.78)): over 24 orders of magnitude
